Where two headings read alike, the source gives them in different places.
Target: human NaV 1.8 (Homo sapiens, UniProt Q9Y5Y9)
Assay: E-VIPR assay detecting and measuring NaV inhibition properties
Assay type: cell-based
Details: HEK cells expressing truncated human NaV 1.8
In short: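 HEK cells expressing truncated, fully active human NaV1.8, with KIR2.1 BacMam co-transduction, were loaded with CC2-DMPE/DiSBAC6(3) voltage-sensing dyes for 20 min at room temperature. Compounds were tested in 11-point 3-fold dilutions (300 nM top final), optionally with 25% human serum, under electrical stimulation with FRET read-out.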

[1] = no human serum, read-out: IC50 in the E-VIPR Assay
[2] = in the presence of human serum (compound numbers followed by *), read-out: IC50 in the E-VIPR Assay, performed in the presence of human serum

Chain of human NaV 1.8 (Q9Y5Y9 126-399 limits assumed): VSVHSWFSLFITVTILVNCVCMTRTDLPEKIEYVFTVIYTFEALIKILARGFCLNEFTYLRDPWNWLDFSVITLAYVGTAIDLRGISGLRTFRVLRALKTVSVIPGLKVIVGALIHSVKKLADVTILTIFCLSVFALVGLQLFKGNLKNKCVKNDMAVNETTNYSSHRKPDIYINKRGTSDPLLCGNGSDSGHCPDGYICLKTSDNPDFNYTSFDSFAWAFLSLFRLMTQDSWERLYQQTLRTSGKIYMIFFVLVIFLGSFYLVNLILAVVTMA
Chain of human NaV 1.8 (Q9Y5Y9 660-890 limits assumed): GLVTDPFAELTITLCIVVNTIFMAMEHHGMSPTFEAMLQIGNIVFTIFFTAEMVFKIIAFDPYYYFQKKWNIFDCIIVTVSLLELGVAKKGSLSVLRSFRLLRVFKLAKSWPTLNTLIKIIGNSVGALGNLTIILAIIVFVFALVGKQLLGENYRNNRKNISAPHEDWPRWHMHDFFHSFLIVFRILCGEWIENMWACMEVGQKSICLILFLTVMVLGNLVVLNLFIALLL
Chain of human NaV 1.8 (Q9Y5Y9 1148-1722 limits assumed): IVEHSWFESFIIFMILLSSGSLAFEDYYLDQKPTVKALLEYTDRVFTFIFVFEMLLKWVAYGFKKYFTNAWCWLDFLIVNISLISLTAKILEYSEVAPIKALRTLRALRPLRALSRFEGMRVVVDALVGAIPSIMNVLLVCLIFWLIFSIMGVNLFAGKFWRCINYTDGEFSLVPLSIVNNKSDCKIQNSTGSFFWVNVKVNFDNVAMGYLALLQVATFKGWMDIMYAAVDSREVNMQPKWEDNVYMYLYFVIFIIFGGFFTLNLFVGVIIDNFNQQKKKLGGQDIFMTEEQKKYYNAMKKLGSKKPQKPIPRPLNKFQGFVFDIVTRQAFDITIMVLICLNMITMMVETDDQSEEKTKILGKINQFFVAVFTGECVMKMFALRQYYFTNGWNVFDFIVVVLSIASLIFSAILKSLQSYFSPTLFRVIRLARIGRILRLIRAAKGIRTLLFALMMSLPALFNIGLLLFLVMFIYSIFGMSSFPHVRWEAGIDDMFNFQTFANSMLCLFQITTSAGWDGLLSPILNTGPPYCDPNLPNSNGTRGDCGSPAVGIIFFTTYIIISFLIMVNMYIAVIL

IC50 [1] [nM]	IC50 [2] [nM]	Compound
10 to 100	–	COc1c([C@H]2[C@H](C(=O)Nc3cncc(S(=O)(=O)N(C)C)c3)O[C@@](C)(C(F)(F)F)[C@H]2C)ccc(F)c1F (stereo in doubt) [Compound 453, rel-(2R,3S,4S,5R)-3-(3,4-difluoro-2-methoxyphenyl)-N-(5-(N,N-dimethylsulfamoyl)pyridin-3-yl)-4,5-dimethyl-5-(trifluoromethyl)tetrahydrofuran-2-carboxamide]
–	≥ 1000	COc1c([C@H]2C[C@@](C)(C(F)(F)F)O[C@@H]2C(=O)Nc2cn(S(C)(=O)=O)nc2C)ccc(F)c1F (stereo in doubt) [Compound 683, rel-(2S,3R,5S)-3-(3,4-difluoro-2-methoxyphenyl)-5-methyl-N-(3-methyl-1-(methylsulfonyl)-1H-pyrazol-4-yl)-5-(trifluoromethyl)tetrahydrofuran-2-carboxamide]
< 10	–	COc1c([C@@H]2C[C@](C)(C(F)(F)F)O[C@H]2C(=O)Nc2cn(S(C)(=O)=O)nc2C)ccc(F)c1F (stereo in doubt) [Compound 684, rel-(2R,3S,5R)-3-(3,4-difluoro-2-methoxyphenyl)-5-methyl-N-(3-methyl-1-(methylsulfonyl)-1H-pyrazol-4-yl)-5-(trifluoromethyl)tetrahydrofuran-2-carboxamide]
–	≥ 1000	COc1c([C@H]2C[C@@](C)(C(F)(F)F)O[C@@H]2C(=O)Nc2ccnc([C@@H](O)[C@H](C)O)c2)ccc(F)c1F (stereo in doubt) [Compound 698, rel-(2S,3R,5S)-3-(3,4-difluoro-2-methoxyphenyl)-N-(2-((1R,2S)-1,2-dihydroxypropyl)pyridin-4-yl)-5-methyl-5-(trifluoromethyl)tetrahydrofuran-2-carboxamide]
–	10 to 100	COc1c([C@@H]2C[C@](C)(C(F)(F)F)O[C@H]2C(=O)Nc2ccnc([C@H](O)[C@@H](C)O)c2)ccc(F)c1F (stereo in doubt) [Compound 699, rel-(2R,3S,5R)-3-(3,4-difluoro-2-methoxyphenyl)-N-(2-((1S,2R)-1,2-dihydroxypropyl)pyridin-4-yl)-5-methyl-5-(trifluoromethyl)tetrahydrofuran-2-carboxamide]
–	≥ 1000	COc1cc(F)ccc1[C@H]1C[C@@](C)(C(F)(F)F)O[C@@H]1C(=O)Nc1ccnc(S(C)(=O)=O)c1 (stereo in doubt) [Compound 713, rel-(2S,3R,5S)-3-(4-fluoro-2-methoxyphenyl)-5-methyl-N-(2-(methylsulfonyl)pyridin-4-yl)-5-(trifluoromethyl)tetrahydrofuran-2-carboxamide]
–	100 to 1000	COc1cc(F)ccc1[C@@H]1C[C@](C)(C(F)(F)F)O[C@H]1C(=O)Nc1ccnc(S(C)(=O)=O)c1 (stereo in doubt) [Compound 714, rel-(2R,3S,5R)-3-(4-fluoro-2-methoxyphenyl)-5-methyl-N-(2-(methylsulfonyl)pyridin-4-yl)-5-(trifluoromethyl)tetrahydrofuran-2-carboxamide]
–	≥ 1000	CCc1c(F)ccc([C@H]2C[C@@](C)(C(F)(F)F)O[C@@H]2C(=O)Nc2cn(S(C)(=O)=O)nc2C)c1OC (stereo in doubt) [Compound 716, rel-(2S,3R,5S)-3-(3-ethyl-4-fluoro-2-methoxyphenyl)-5-methyl-N-(3-methyl-1-(methylsulfonyl)-1H-pyrazol-4-yl)-5-(trifluoromethyl)tetrahydrofuran-2-carboxamide]
–	100 to 1000	CCc1c(F)ccc([C@@H]2C[C@](C)(C(F)(F)F)O[C@H]2C(=O)Nc2cn(S(C)(=O)=O)nc2C)c1OC (stereo in doubt) [Compound 717, rel-(2R,3S,5R)-3-(3-ethyl-4-fluoro-2-methoxyphenyl)-5-methyl-N-(3-methyl-1-(methylsulfonyl)-1H-pyrazol-4-yl)-5-(trifluoromethyl)tetrahydrofuran-2-carboxamide]
100 to 1000	–	COc1nc(C(F)F)ccc1[C@H]1[C@H](C(=O)Nc2ccc(C(N)=O)nc2)O[C@@](C)(C(F)(F)F)[C@H]1C (stereo in doubt) [Compound 734, rel-5-((2R,3S,4S,5R)-3-(6-(difluoromethyl)-2-methoxypyridin-3-yl)-4,5-dimethyl-5-(trifluoromethyl)tetrahydrofuran-2-carboxamido)picolinamide]
≥ 1000	–	COc1nc(C(F)F)ccc1[C@@H]1[C@@H](C(=O)Nc2ccc(C(N)=O)nc2)O[C@](C)(C(F)(F)F)[C@@H]1C (stereo in doubt) [Compound 735, rel-5-((2S,3R,4R,5S)-3-(6-(difluoromethyl)-2-methoxypyridin-3-yl)-4,5-dimethyl-5-(trifluoromethyl)tetrahydrofuran-2-carboxamido)picolinamide]
< 10	–	COc1c([C@H]2[C@H](C(=O)Nc3ccc(C(N)=O)nc3)O[C@@](C)(C(F)(F)F)[C@H]2C)ccc(F)c1F [Compound 1, 5-((2R,3S,4S,5R)-3-(3,4-difluoro-2-methoxyphenyl)-4,5-dimethyl-5-(trifluoromethyl)tetrahydrofuran-2-carboxamido)picolinamide]
10 to 100	–	COc1c([C@H]2[C@H](C(=O)Nc3ccc(C(N)=O)[n+]([O-])c3)O[C@@](C)(C(F)(F)F)[C@H]2C)ccc(F)c1F [Compound 2, 2-carbamoyl-5-((2R,3S,4S,5R)-3-(3,4-difluoro-2-methoxyphenyl)-4,5-dimethyl-5-(trifluoromethyl)tetra hydrofuran-2-carboxamido)pyridine 1-oxide]
10 to 100	–	COc1c([C@H]2[C@H](C(=O)Nc3cc(C[C@H](O)CO)n(C)n3)O[C@@](C)(C(F)(F)F)[C@H]2C)ccc(F)c1F [Compound 5, (2R,3S,4S,5R)-3-(3,4-difluoro-2-methoxyphenyl)-N-(5-((S)-2,3-dihydroxypropyl)-1-methyl-1H-pyrazol-3-yl)-4,5-dimethyl-5-(trifluoromethyl)tetrahydrofuran-2-carboxamide]
10 to 100	–	COCC(C)(C)N(C)Cc1cc(NC(=O)[C@@H]2O[C@@](C)(C(F)(F)F)[C@@H](C)[C@H]2c2ccc(F)c(F)c2OC)ccn1 [Compound 15]
10 to 100	–	COc1c([C@H]2[C@H](C(=O)Nc3ccc4nc(C(N)=O)nn4c3)O[C@@](C)(C(F)(F)F)[C@H]2C)ccc(F)c1F [Compound 16]
< 10	–	COc1c(C2C(C(=O)Nc3cnnc(CO)c3)OC(C)(C(F)(F)F)C2C)ccc(F)c1F (stereo not drawn) [Compound 18, 3-(3,4-difluoro-2-methoxy-phenyl)-N-[6-(hydroxymethyl)pyridazin-4-yl]-4,5-dimethyl-5-(trifluoromethyl)tetrahydrofuran-2-carboxamide]
< 10	–	COc1c([C@H]2[C@H](C(=O)Nc3ccc(C(=O)O)nc3)O[C@@](C)(C(F)(F)F)[C@H]2C)ccc(F)c1F [Compound 19, 5-[[(2R,3S,4S,5R)-3-(3,4-difluoro-2-methoxy-phenyl)-4,5-dimethyl-5-(trifluoromethyl)tetrahydrofuran-2-carbonyl]amino]pyridine-2-carboxylic acid]
10 to 100	–	COc1c([C@H]2[C@H](C(=O)Nc3cc(CO)nn3C)O[C@@](C)(C(F)(F)F)[C@H]2C)ccc(F)c1F [Compound 20, (2R,3S,4S,5R)-3-(3,4-difluoro-2-methoxy-phenyl)-N-[5-(hydroxymethyl)-2-methyl-pyrazol-3-yl]-4,5-dimethyl-5-(trifluoromethyl)tetrahydrofuran-2-carboxamide]
10 to 100	–	COc1c([C@H]2[C@H](C(=O)Nc3cnc(CO)n3C)O[C@@](C)(C(F)(F)F)[C@H]2C)ccc(F)c1F [Compound 21, (2R,3S,4S,5R)-3-(3,4-difluoro-2-methoxy-phenyl)-N-[2-(hydroxymethyl)-3-methyl-imidazol-4-yl]-4,5-dimethyl-5-(trifluoromethyl)tetrahydrofuran-2-carboxamide]
< 10	–	COc1c([C@H]2[C@H](C(=O)Nc3ccnc(CN[C@@H]4CCOC4)c3)O[C@@](C)(C(F)(F)F)[C@H]2C)ccc(F)c1F [Compound 23]
–	≥ 1000	CNCc1cc(NC(=O)C2OC(C)(C(F)(F)F)C(C)C2c2ccc(F)c(F)c2OC)c(F)cn1 (stereo not drawn) [Compound 58, 3-(3,4-difluoro-2-methoxy-phenyl)-N-[5-fluoro-2-(methylaminomethyl)-4-pyridyl]-4,5-dimethyl-5-(trifluoromethyl)tetrahydrofuran-2-carboxamide]
≥ 1000	–	COCCNCc1cc(NC(=O)C2OC(C)(C(F)(F)F)C(C)C2c2ccc(F)c(F)c2OC)ccn1 (stereo not drawn) [Compound 59, 3-(3,4-difluoro-2-methoxy-phenyl)-N-[2-[(2-methoxyethylamino)methyl]-4-pyridyl]-4,5-dimethyl-5-(trifluoromethyl)tetrahydrofuran-2-carboxamide]
< 10	–	COCCNCc1cc(NC(=O)C2OC(C)(C(F)(F)F)C(C)C2c2ccc(F)c(F)c2OC)ccn1 (stereo not drawn) [Compound 60, 3-(3,4-difluoro-2-methoxy-phenyl)-N-[2-[(2-methoxyethylamino)methyl]-4-pyridyl]-4,5-dimethyl-5-(trifluoromethyl)tetrahydrofuran-2-carboxamide]
≥ 1000	–	COc1c(C2C(C(=O)Nc3ccnc(CO)c3)OC(C)(C(F)(F)F)C2C)ccc(F)c1F (stereo not drawn) [Compound 61, 3-(3,4-difluoro-2-methoxy-phenyl)-N-[2-(hydroxymethyl)-4-pyridyl]-4,5-dimethyl-5-(trifluoromethyl)tetrahydrofuran-2-carboxamide]
< 10	–	COc1c(C2C(C(=O)Nc3ccnc(S(=O)(=O)CCO)c3)OC(C)(C(F)(F)F)C2C)ccc(F)c1F (stereo not drawn) [Compound 62, 3-(3,4-difluoro-2-methoxy-phenyl)-N-[2-(2-hydroxyethylsulfonyl)-4-pyridyl]-4,5-dimethyl-5-(trifluoromethyl)tetrahydrofuran-2-carboxamide]
< 10	–	Cc1c(F)ccc(C2C(C(=O)Nc3ccnc(S(C)(=O)=O)c3)OC(C)(C(F)(F)F)C2C)c1OC(F)F (stereo not drawn) [Compound 97, 3-[2-(difluoromethoxy)-4-fluoro-3-methyl-phenyl]-4,5-dimethyl-N-(2-methylsulfonyl-4-pyridyl)-5-(trifluoromethyl)tetrahydrofuran-2-carboxamide]
